In ChEMBL document CHEMBL3232965, “The σ2 receptor: a novel protein for the imaging and treatment of cancer” (J Med Chem, 2013):

What was measured:
[1] = species on record: Homo sapiens; test: Selectivity ratio of Ki for sigma-1 opioid receptor (unknown origin) to Ki for sigma-2 opioid receptor (unknown origin)
[2] = molecular target: Sigma non-opioid intracellular receptor 1 (Homo sapiens, UniProt Q99720); test: Binding affinity to sigma-1 opioid receptor (unknown origin)
[3] = Binding affinity to sigma-2 opioid receptor (unknown origin); set-up: species or system Homo sapiens
[4] = Binding affinity to guinea pig hippocampus sigma-2 opioid receptor; set-up: species or system Cavia porcellus
[5] = species on record: Cavia porcellus; test: Selectivity ratio of Ki for guinea pig hippocampus sigma-1 opioid receptor to Ki for guinea pig hippocampus sigma-2 opioid receptor
[6] = Selectivity ratio of Ki for guinea pig brain sigma-1 opioid receptor to Ki for rat liver sigma-2 opioid receptor
[7] = Displacement of [3H]-DTG from sigma-2 opioid receptor in rat liver
[8] = Displacement of [3H]di-o-tolylguanidine from sigma-2 opioid receptor in rat brain; type: tissue-based
[9] = Binding affinity to sigma-1 opioid receptor (unknown origin)
[10] = test system: TRAMP; test: Selectivity ratio of Ki for sigma-1 opioid receptor in TRAMP cell membranes to Ki for sigma-2 opioid receptor in TRAMP cell membranes; type: cell-based; conditions: Mus musculus
[11] = species on record: Homo sapiens; test: Selectivity ratio of IC50 for sigma-1 opioid receptor (unknown origin) to IC50 for sigma-2 opioid receptor (unknown origin)
[12] = Displacement of [3H]progesterone from sigma-1 opioid receptor in porcine liver microsome membranes; type: microsomes, Sus scrofa
[13] = Binding affinity to guinea pig brain membrane sigma-2 opioid receptor by radioligand displacement assay; set-up: species or system Cavia porcellus
[14] = molecular target: Sigma non-opioid intracellular receptor 1 (Cavia porcellus, UniProt Q60492); test: Binding affinity to guinea pig brain membrane sigma-1 opioid receptor by radioligand displacement assay
Chain of Sigma non-opioid intracellular receptor 1 (Cavia porcellus, UniProt Q60492) (Q60492 whole entry): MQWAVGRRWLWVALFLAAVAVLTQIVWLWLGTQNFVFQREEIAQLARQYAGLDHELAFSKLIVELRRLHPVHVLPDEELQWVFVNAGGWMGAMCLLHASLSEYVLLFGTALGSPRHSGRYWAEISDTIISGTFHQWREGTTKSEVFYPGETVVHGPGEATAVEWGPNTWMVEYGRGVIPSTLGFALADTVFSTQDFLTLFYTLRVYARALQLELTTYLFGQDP

[15] = species on record: Cavia porcellus; test: Selectivity ratio of Ki for guinea pig brain membrane sigma-1 opioid receptor to Ki for guinea pig brain membrane sigma-2 opioid receptor
[16] = Displacement of [3H]ditolylguanidine from sigma-2 opioid receptor in rat liver membranes by liquid scintillation spectrometric analysis; type: cell membranes, Membrane
[17] = Ratio of drug level in nuclear fraction to cytosolic fraction of human MCF7/ADR cells at 20 to 50 uM after 2 hrs by beta counting analysis; type: ADME, cell-based; conditions: nci/adr-res
[18] = Ratio of drug level in nuclear fraction to cytosolic fraction of human SK-N-SH cells at 20 to 50 uM after 2 hrs by beta counting analysis; type: ADME, cell-based
[19] = Lipophilicity, log P of the compound; type: physicochemical; conditions: octanol/water

Chain of Sigma non-opioid intracellular receptor 1 (Homo sapiens, UniProt Q99720) (Q99720 whole entry): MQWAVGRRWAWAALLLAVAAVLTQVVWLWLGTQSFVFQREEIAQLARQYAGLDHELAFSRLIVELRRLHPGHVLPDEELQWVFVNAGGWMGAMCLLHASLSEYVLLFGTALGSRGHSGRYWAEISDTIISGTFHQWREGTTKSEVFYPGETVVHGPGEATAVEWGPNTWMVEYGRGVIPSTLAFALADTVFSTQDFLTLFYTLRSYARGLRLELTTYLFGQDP

`CN1CC[C@@]2(c3cccc(O)c3)CC(=O)/C(=C/c3ccc(Cl)c(Cl)c3)[C@@H]1C2` gave a Ratio Ki [1] of 0.77, a Ki [2] of 27.3 nM and a Ki [3] of 35.3 nM.
Work on `CCn1c(=O)n(C(=O)NC2CC3CCC(C2)N3C)c2ccccc21` (stereo not drawn) yielded a Ki [4] of 32 nM and a Ratio Ki [5] of 197.
In the case of `COc1cccc2c1CCCC2CCCC1CCN(C2CCCCC2)CC1` (stereo not drawn), the Ratio Ki [6] is reported as 29 and the Ki [7] is reported as 26.6 nM.
In the case of `COc1cccc2c1CCC[C@H]2NC(=O)CN1CCN(C2CCCCC2)CC1`, the Ratio Ki [6] is reported as 2 and the Ki [7] is reported as 10.1 nM.
For `CC(=O)c1ccc2c(c1)oc(=O)n2CCCCN1CCN(c2ccc(F)cc2)CC1`, the Ki [8] was 7 nM.
`CC[C@H]1C[C@H]2C[C@H]3c4[nH]c5ccc(OC)cc5c4CCN(C2)[C@@H]13` [IBOGAINE] showed a Ratio Ki [1] of 43 and a Ki [3] of 201 nM.
In the case of `COc1cc2c(cc1OC)CN(CCNC(=O)c1cc(Br)cc(OC)c1OC)CC2`, the Ratio Ki [1] is reported as 179, the Ki [9] is reported as 2930 nM and the Ki [3] is reported as 16.4 nM.
With `Fc1ccccc1N1CCN(CCCn2ccc3ccccc32)CC1` the Ratio Ki [1] was 20, the Ki [2] was 1490 nM and the Ki [3] was 75 nM.
In the case of `COc1cccc2c(CCCN3CCN(C4CCCCC4)CC3)cccc12`, the Ratio Ki [10] is reported as 13.
`CN1CC[C@@]2(c3cccc(O)c3)CC(=O)/C(=C/c3cccc(O)c3)[C@@H]1C2` showed a Ratio Ki [1] of 0.07, a Ki [2] of 10.5 nM and a Ki [3] of 153 nM.
For `CS(=O)(=O)n1cc(CCCCN2CCC3(CC2)OCc2ccccc23)c2ccccc21`, the Ratio IC50 [11] was 26, the Ki [2] was 1.3 nM and the Ki [3] was 0.05 nM.
For `COc1ccc(C)cc1NC(=O)OC1CC2CCCC(C1)N2Cc1ccc(N(C)C)cc1` (stereo not drawn), the Ratio Ki [1] was 553, the Ki [2] was 1440 nM and the Ki [3] was 2.6 nM.
`COc1cc2c(cc1OC)CN(CCCCNC(=O)c1cc(Br)cc(OC)c1OC)CC2` showed a Ki [3] of 8.2 nM.
For `O=S(=O)(c1ccccc1)n1cc(CCCCN2CCC3(CC2)OCc2ccccc23)c2ccccc21`, the Ratio IC50 [11] was 59, the Ki [2] was 10 nM and the Ki [3] was 0.17 nM.
Work on `CC[C@H]1C[C@@H]2C[C@H]3c4[nH]c5ccc(OC)cc5c4CCN(C2)[C@@H]13` [IBOGAINE] yielded a Ki [2] of 8550 nM.
Compound `CC(C)=CCN1CC[C@]2(C)c3cc(O)ccc3C[C@H]1[C@H]2C` [(+)-PENTAZOCINE] has a Ki [12] of 1130 nM.
Compound `OC12C3C4CC5C6C4C1C6C(C53)N2Cc1ccc(F)cc1` (stereo not drawn) has a Ki [13] of 20 nM, a Ki [14] of 152 nM and a Ratio Ki [15] of 7.6.
Work on `COC(=O)[C@@]1(c2ccccc2)C[C@H]1CN1C2CCC1CC(O)(c1ccc(Cl)cc1)C2` (stereo partly drawn) yielded a Ratio Ki [15] of 20.6.
For `COc1ccc(C(=O)NCCCCN2CCc3ccc([N+](=O)[O-])cc3C2)c(OC)c1OC`, the Ratio Ki [1] was 385, the Ki [2] was 10300 nM and the Ki [3] was 26.8 nM.
In the case of `CN1CC[C@]2(c3cccc(O)c3)CC(=O)/C(=C/c3cccc(O)c3)[C@H]1C2`, the Ratio Ki [1] is reported as 185, the Ki [2] is reported as 3060 nM and the Ki [3] is reported as 16.5 nM.
Compound `Fc1ccc(C2=CC3CCC(C2)N3CCCCc2cn(-c3ccc(F)cc3)c3ccccc23)cc1` (stereo not drawn) has a Ratio IC50 [11] of 480, a Ki [2] of 1200 nM and a Ki [3] of 2.5 nM.
For `COc1cccc2c1CCCC2CCCN1CCC(C2CCCCC2)CC1` (stereo not drawn), the Ratio Ki [6] was 7.6 and the Ki [7] was 18.8 nM.
With `COc1cc2c(cc1OC)CN(CCNC(=O)c1cc(Br)ccc1OC)CC2` the Ki [9] was 5480 nM and the Ki [3] was 12.4 nM.
In the case of `CCC(Oc1ccc(Cl)cc1)C(=O)OC1CC2CCC(C1)N2C` (racemic), the Ratio Ki [1] is reported as > 15, the Ki [2] is reported as > 1000 nM and the Ki [3] is reported as 67.5 nM.
With `CC(=O)[C@H]1CC[C@H]2[C@@H]3CCC4=CC(=O)CC[C@]4(C)[C@H]3CC[C@]12C` [PROGESTERONE] the Kd [16] was 441 nM.
`COc1cccc2c1CCCC2CCCN1CCN(C2CCCCC2)CC1` (racemic) showed a Ratio [17] of 5, a Ratio Ki [6] of 0.56 and a Ratio [18] of 5.
Compound `COc1ccc(CN2C3CCC2CC3)cc1OC` has a Ki [3] of 43 nM.
In the case of `COc1cccc2c1CCC[C@@H]2NC(=O)CN1CCN(C2CCCCC2)CC1`, the Ratio Ki [6] is reported as 16 and the Ki [7] is reported as 6 nM.
`COc1cc2c(cc1OC)CN(CCNC(=O)c1cc(C)ccc1OC)CC2` gave a Ki [3] of 13.3 nM.
`COc1cc(Br)cc(C(=O)NCCCCN2CCN(c3cccc(Cl)c3Cl)CC2)c1OC` gave a logP [19] of 5.76, a Ki [9] of 809 nM and a Ki [3] of 75 nM.
For `CN1CC[C@]2(c3cccc(O)c3)CC(=O)/C(=C/c3ccc(Cl)c(Cl)c3)[C@H]1C2`, the Ratio Ki [1] was 555, the Ki [2] was 7440 nM and the Ki [3] was 13.4 nM.
